Consider ten molecules from patent US20230133087A1, “ACTIVE COMPOUND COMBINATIONS AND FUNGICIDE COMPOSITIONS COMPRISING THOSE” (priority 2020, published 2023).

What all share (format): cell-based
The subject of test [1] is Colletotrichum coccodes. Put plainly: In vitro-test with fungal microorganisms: Colletotrichum coccodes. As to the method:
(§1) The degree of efficacy, expressed in % is denoted. 0% means an efficacy which corresponds to that of the control while an efficacy of 100% means that no disease is observed.
(§2) Wells of 96-well microtiter plates are filled with 30 μl of a preparation of test compound or compound combination in methanol+emulsifier alkylaryl-polyglycol-ether. Thereafter, the solvent is evaporated in a hood. At the next step, into each well 200 μl of liquid growth medium is given, that has been amended with an appropriate concentration of spores or mycelium suspension of the test fungus.
(§3) With the aid of a photometer the extinction in all wells is measured at the wavelength of 600 nm.
(§4) The microtiter plates are incubated for 3 to 7 days at 20° C. and 85% relative humidity. After the incubation inhibition of growth is determined photometrically. Efficacy is calculated in relation to the untreated control, 0% efficacy means fungal growth as high as in untreated control while 100% efficacy means no fungal growth is measured.

For test [2], the system named is Cordana musae. Put plainly: In vitro-test with fungal microorganisms: Cordana musae. As to the method:
as §1, §2, §3, §4

Test [3] relates to Diaporthe citri. Put plainly: In vitro-test with fungal microorganisms: Diaporthe citri. The procedure:
as §1, §2, §3, §4

In test [4] the test system is Parastasonospora nodorum. The experiment in a line: In vitro-test with fungal microorganisms: Parastasonospora nodorum. As to the method: as §1, §2, §3, §4
Test [5] relates to Alternaria alternata. Put plainly: In vitro-test with fungal microorganisms (microtiter plate, photometric growth inhibition): Alternaria alternata. As to the method: as §1, §2, §3, §4
Test [6] deals with Botrytis cinerea. Put plainly: In vitro-test with fungal microorganisms: Botrytis cinerea. The procedure: as §1, §2, §3, §4

Values joined by “and” are separate entries in the source; they are usually repeats but may differ in a detail not shown here. Equal values may be shown once.

With `O=C(NC1CCC1c1ccc(Cl)cc1Cl)c1cccnc1C(F)(F)F` (stereo in doubt) [(2.060) cyclobutrifluram, cyclobutrifluram], the efficacy in test [1] (0.04 ppm) stood at 5%; in test [1] (0.2 ppm), 8%; in test [2] (0.04 ppm), 3%; in test [2] (0.2 ppm), 4%; in test [2] (1 ppm) it was 6%.

On to `O=C(NC1CCC1c1ccc(Cl)cc1Cl)c1cccnc1C(F)(F)F` (stereo in doubt) [cyclobutrifluram], for which the efficacy in test [3] (Table F1, 0.04 ppm) came out at 0%; in test [4] (Table H2, 0.04 ppm) it was 27%.

In the case of `O=C(NCCc1ncc(C(F)(F)F)cc1Cl)c1ccccc1C(F)(F)F` [(2.005) fluopyram, fluopyram], the efficacy in test [5] (0.16 ppm) was 72%; in test [5] (0.8 ppm), 73%; in test [5] (4 ppm), 95%; in test [6] (0.8 ppm), 0%; in test [1] (0.16 ppm) it was 10% and 0%; in test [1] (0.8 ppm), 0%. The efficacy in test [2] (0.16 ppm) was 0%; in test [2] (0.8 ppm), 6% and 0%.

As to `Cc1nn(C)c(F)c1C(=O)Nc1ccccc1C(C)CC(C)C` (stereo not shown) [(2.017) penflufen, penflufen], the efficacy in test [5] (0.2 ppm) amounted to 14%; in test [6] (1 ppm), 35%; in test [6] (5 ppm), 7%; in test [1] (0.04 ppm) it was 5%; in test [1] (0.2 ppm) it was 0%.

Regarding `CON(C(=O)c1cn(C)nc1C(F)F)C(C)Cc1c(Cl)cc(Cl)cc1Cl` (stereo not shown) [(2.019) pydiflumetofen, pydiflumetofen], the efficacy is 71% in test [6] (0.04 ppm); 82% in test [6] (0.2 ppm); 92% in test [6] (1 ppm); 8% and 9% in test [1] (0.008 ppm); 19% in test [1] (0.2 ppm).

For the molecule `CON=C(C(=O)OC)c1ccccc1CON=C(C)c1cccc(C(F)(F)F)c1` [(3.020) trifloxystrobin, trifloxystrobin], the efficacy is 39% in test [5] (0.008 ppm); 100% in test [5] (1 ppm); 0% in test [6] (0.008 ppm); 9% in test [6] (0.04 ppm); 25% in test [6] (0.2 ppm); 81% in test [6] (1 ppm). Besides, the efficacy in test [1] (0.04 ppm) was 58% and 62% and 61%; in test [1] (0.2 ppm), 84% and 88% and 82%; in test [1] (1 ppm), 96% and 97% and 92%; in test [2] (0.008 ppm), 29%; in test [2] (0.04 ppm) it was 82%; in test [2] (0.2 ppm), 83% and 82%. For the same molecule, the efficacy in test [2] (1 ppm) was 89% and 88% and 86% and 85%.

Take `C[C@@H]1CC(C)(C)c2cccc(NC(=O)c3cn(C)nc3C(F)F)c21` [inpyrfluxam]: the efficacy is recorded as 16% in test [2] (0.008 ppm); 0% in test [2] (0.04 ppm); 6% in test [2] (0.2 ppm); 20% in test [4] (Table H3, 0.008 ppm).

As for `Cc1cccc(-n2nnn(C)c2=O)c1COc1ccn(-c2ccc(Cl)cc2)n1` [metyltetraprole], the efficacy in test [2] (0.08 ppm) is reported as 58%; in test [2] (0.4 ppm), 73%; in test [2] (2 ppm), 82%; in test [3] (Table F1, 0.4 ppm), 91%; in test [3] (Table F1, 2 ppm), 99%; in test [3] (Table F1, 10 ppm) it was 99%. The efficacy in test [3] (Table F2, 0.4 ppm) was 89%; in test [3] (Table F2, 2 ppm), 99%; in test [4] (Table H2, 0.08 ppm), 80% and 76%; in test [4] (Table H2, 0.4 ppm), 92%; in test [4] (Table H2, 2 ppm), 100%; in test [4] (Table H2, 10 ppm), 100%.

For the molecule `Cc1nn(C)c(F)c1C(=O)Nc1ccccc1C(C)CC(C)C` (stereo not shown) [penflufen], the efficacy in test [2] (0.2 ppm) turned out to be 0%; in test [2] (1 ppm), 0%; in test [3] (Table F2, 0.04 ppm), 0%; in test [3] (Table F2, 0.2 ppm) it was 0%; in test [4] (Table H2, 5 ppm), 22%.

As to `CON(C(=O)c1cn(C)nc1C(F)F)C(C)Cc1c(Cl)cc(Cl)cc1Cl` (stereo not shown) [pydiflumetofen], the efficacy is 0% in test [2] (0.008 ppm); 9% in test [2] (0.04 ppm); 0% in test [3] (Table F2, 0.04 ppm); 22% in test [3] (Table F2, 0.2 ppm); 33% in test [3] (Table F2, 1 ppm).
